Measurements reported in patent US20240043860A1, “NOVEL HYDROXYPHENYLPYRUVATE DIOXYGENASE POLYPEPTIDES AND METHODS OF USE THEREOF” (Syngenta Crop Protection AG, priority 2020, published 2024).
Several values for one entry are separate records, joined by “and”; a condition that tells them apart may be missing. Equal values may be shown once.

Experiments:
Assay in all cases: spray test, herbicidal damage scoring
Type in all cases: in vivo
[1] = test system: transgenic tobacco plants expressing mutant HPPD SEQ ID NO: 124; conditions: Table 4.2, 7 days after treatment, 100=complete death, 0=no damage, one value per event
Experimental: (§1) DNA sequences that encode these polypeptides (optimized for tobacco or, optionally, codon optimized according to a target crop such as soybean) were prepared synthetically. Each sequence was designed to include a 5′ fusion with TMV omega 5′ leader sequence such that they are flanked at the 5′ end with XhoI and at the 3′ end with KpnI to facilitate direct cloning into a suitable binary vector for Agrobacterium-based plant transformation.
(§2) For example, a master plate of Agrobacterium tumefaciens containing the HPPD expressing the binary vector is used to inoculate 10 ml LB (L broth) containing 100 mg/l Rifampicin plus 50 mg/l Kanamycin using a single bacterial colony. This is incubated overnight at 28° C. shaking at 200 rpm. This entire overnight culture is used to inoculate a 50 ml volume of LB containing the same antibiotics. Again this is cultured overnight at 28° C. shaking at 200 rpm. The Agrobacterium cells are pelleted by centrifuging at 3000 rpm for 15 minutes and then resuspended in MS (Murashige and Skoog) medium containing 30 g/l sucrose, pH 5.9 to an OD […]=0.6. This suspension is dispensed in 25 ml aliquots into petri dishes.
(§3) Once rooted, plantlets are transferred from agar and potted into 50% peat, 50% John Innes Soil No. 3 or, for example, MetroMix® 380 soil (Sun Gro Horticulture, Bellevue, WA) with slow-release fertilizer in 3 inch round or 4 inch square pots and left regularly watered to establish for 8-12d in the glass house. Glass house conditions are about 24-27° C. day; 18-21° C. night and approximately a 14h (or longer in UK summer) photoperiod.
(§4) About 20-30 TO events are produced for a number of HPPD variant genes.
(§5) Single copy events amongst the Ti plant lines are identified by their 3:1 segregation ratio (with respect to kanamycin and/or herbicide) and by quantitative RT-PCR. Seed from the thus selected Ti tobacco (var. Samsun) lines are sown in 3 inch diameter pots containing 50% peat and 50% John Innes Soil No. 3. […] HPPD expression levels were monitored by Western analysis.
(§6) Tables 4.1-4.9 show the herbicidal damage scoring on transgenic tobacco plants 7 days after treatment. A score of 100=complete death and 0=no damage observed.

[2] = test system: transgenic tobacco plants expressing mutant HPPD SEQ ID NO: 125; conditions: Table 4.3, 7 days after treatment, 100=complete death, 0=no damage, one value per event
Experimental: as §1, §2, §3, §4, §5, §6

[3] = test system: transgenic tobacco plants expressing mutant HPPD SEQ ID NO: 21; conditions: 2000 g/ha; SEQ ID 21 plants compared to plants expressing SEQ IDs 122, 124 or 125
Experimental: as §1, with “Avena sativa HPPD or orthologues and variants thereof, for example SEQ IDs 1-63 and 122-127, were expressed in transgenic tobacco. DNA” for “DNA”, “transformation. […]” for “transformation.”
(§7) Plants are assessed for damage and scored at, for example, 7 and 14 days after treatment (DAT). […]
(§8) Plants of events showing the least damage are grown to flowering, then bagged and allowed to self. […] Single copy events amongst the Ti plant lines are identified by their 3:1 segregation ratio (with respect to kanamycin and/or herbicide) and by quantitative RT-PCR. […] HPPD expression levels were monitored by Western analysis. […]

[4] = test system: transgenic tobacco plants expressing mutant HPPD SEQ ID NO: 8; conditions: 2000 g/ha; SEQ ID 8 plants compared to plants expressing SEQ IDs 122, 124 or 125
Experimental: as §1, with “Avena sativa HPPD or orthologues and variants thereof, for example SEQ IDs 1-63 and 122-127, were expressed in transgenic tobacco. DNA” for “DNA”, “transformation. […]” for “transformation.”
as §7, §8

COc1ccc(-n2nc(C)cc(C(=O)C3C(=O)CCCC3=O)c2=O)cc1OC [Herbicide C, dioxopyritrione]
herbicidal damage scoring, Herbicide C (200 g/ha) [1]: 60 and 65 and 50 | herbicidal damage scoring, Herbicide C (200 g/ha) [2]: 60 and 80 and 75 and 85

Cn1nnnc1NC(=O)c1ccc(C(F)(F)F)nc1-n1cncn1 [Herbicide D, N-(1-methyltetrazol-5-yl)-2-(1,2,4-triazol-1-yl)-6-(trifluoromethyl)pyridine-3-carboxamide]
damage [3]: significantly reduced damage | damage [4]: significantly reduced damage
